Assay results published in patent US20250114359A1, “METHODS FOR […] G[…]/OR HEXOKINASE” (UNIVERSITY OF SOUTH CAROLINA, priority 2023, published 2025).

Target: Trypanosoma cruzi glucokinase (TcGlcK) (Trypanosoma cruzi, UniProt Q4E4E1)
Test: Determination of Ki values by type 1 and type 2 Dixon plots;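 note: compounds supplied as 10 mM DMSO stocks (100 µL format), with a non-inhibitory compound run alongside for comparison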
Assay type: biochemical
Procedure: The inhibition constant can be determined by development of a Dixon plot (either type 1 or type 2) according to standard practice, and as utilized herein refers to the inhibitor concentration at which half maximum inhibition is determined for a 100 μL/10 mM format in DMSO.
Determination of the Ki values for inhibitors was performed by creation of both type 1 and type 2 Dixon plots. The format included 100 μL/10 mM in DMSO.

Trypanosoma cruzi glucokinase (TcGlcK), sequence (Q4E4E1 1-376): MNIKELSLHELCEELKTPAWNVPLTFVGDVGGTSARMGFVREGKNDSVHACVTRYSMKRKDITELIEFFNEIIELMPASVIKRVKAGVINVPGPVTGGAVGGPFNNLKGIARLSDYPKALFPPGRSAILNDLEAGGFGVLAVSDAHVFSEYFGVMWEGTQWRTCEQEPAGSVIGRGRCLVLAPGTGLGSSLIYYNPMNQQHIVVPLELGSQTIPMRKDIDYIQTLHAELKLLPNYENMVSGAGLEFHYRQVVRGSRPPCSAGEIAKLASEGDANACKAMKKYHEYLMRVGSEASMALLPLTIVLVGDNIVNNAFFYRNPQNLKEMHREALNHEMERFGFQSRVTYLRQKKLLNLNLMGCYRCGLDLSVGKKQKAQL

Going from `Cc1cc2c(c(O)c1-c1c(C)cc3c(c1O)/C(=C/NCCO)C(=O)C(O)=C3C(C)C)/C(=C/NCCO)C(=O)C(O)=C2C(C)C` (atropisomer, axis not shown) [Inhibitor 13] to `Cc1cc2c(c(O)c1-c1c(C)cc3c(c1O)/C(=C/NCSN)C(=O)C(O)=C3C(C)C)/C(=C/NCSN)C(=O)C(O)=C2C(C)C` (atropisomer, axis not shown) [Inhibitor 85], the Ki falls from 422 µM to 30.1 µM (14-fold). The second binds more tightly here.

First: Cc1cc2c(C(C)C)c(O)c(O)c(/C=N/CCOc3ccc4c(c3)CCC4)c2c(O)c1-c1c(C)cc2c(C(C)C)c(O)c(O)c(/C=N/CCOc3ccc4c(c3)CCC4)c2c1O (atropisomer, axis not shown) [Inhibitor 82]
Second: Cc1cc2c(C(C)C)c(O)c(O)c(/C=N/CCOc3ccc4c(c3)OCC4)c2c(O)c1-c1c(C)cc2c(C(C)C)c(O)c(O)c(/C=N/CCOc3ccc4c(c3)OCO4)c2c1O (atropisomer, axis not shown) [Inhibitor 41]
The Ki of the first is 3.3-fold lower: 98.9 µM for the first, 328 µM for the second.

`COc1ccc(CC(=O)N/N=C/c2c(O)c(O)c(C(C)C)c3cc(C)c(-c4c(C)cc5c(C(C)C)c(O)c(O)c(/C=N/NC(=O)Cc6ccc(OC)c(OC)c6)c5c4O)c(O)c23)cc1OC` (atropisomer, axis not shown) [Inhibitor 55] and `COc1ccc(OC)c(/N=C/c2c(O)c(O)c(C(C)C)c3cc(C)c(-c4c(C)cc5c(C(C)C)c(O)c(O)c(/C=N/c6cc(OC)ccc6OC)c5c4O)c(O)c23)c1` [Inhibitor 11] are within 1.5-fold of each other in Ki: 41.6 µM for the first, 30.5 µM for the second.

First: COc1cc(/C=N/c2c(C)n(C)n(-c3ccccc3)c2=O)ccc1O [Inhibitor 62]
Second: COc1ccc2ccccc2c1/C=C1\SC(=S)NC1=O [Inhibitor 69]
The Ki of the first is 1.5-fold higher: 19.9 µM for the first, 12.9 µM for the second.

Compared with `COc1cc(NS(=O)(=O)c2ccc(N/C=C3\C(=O)C(O)=C(C(C)C)c4cc(C)c(-c5c(C)cc6c(c5O)/C(=C/Nc5ccc(S(=O)(=O)Nc7cc(OC)nc(OC)n7)cc5)C(=O)C(O)=C6C(C)C)c(O)c43)cc2)nc(OC)n1` (atropisomer, axis not shown) [Inhibitor 20], `Cc1cc2c(c(O)c1-c1c(C)cc3c(c1O)/C(=C/Nc1ccc(S(=O)(=O)Nc4nccs4)cc1)C(=O)C(O)=C3C(C)C)/C(=C/Nc1ccc(S(=O)(=O)Nc3nccs3)cc1)C(=O)C(O)=C2C(C)C` (atropisomer, axis not shown) [Inhibitor 23] is 2.9-fold higher in Ki: 11.2 µM for the first, 32.3 µM for the second.

Going from `Cc1cc2c(c(O)c1-c1c(C)cc3c(c1O)/C(=C\Nc1ccc(S(=O)(=O)NC(=N)N)cc1)C(=O)C(O)=C3C(C)C)/C(=C/Nc1ccc(S(=O)(=O)NC(=N)N)cc1)C(=O)C(O)=C2C(C)C` [Inhibitor 16] to `Cc1cc2c(c(O)c1-c1c(C)cc3c(c1O)/C(=C/Nc1ccc(S(N)(=O)=O)cc1)C(=O)C(O)=C3C(C)C)/C(=C/Nc1ccc(S(N)(=O)=O)cc1)C(=O)C(O)=C2C(C)C` (atropisomer, axis not shown) [Inhibitor 25], the Ki rises from 1.03 µM to 74.3 µM (72-fold).

Going from `Cc1cc2c(C(C)C)c(O)c(O)c(/C=N/c3cccc(N4CCCC4=O)c3)c2c(O)c1-c1c(C)cc2c(C(C)C)c(O)c(O)c(/C=N/c3cccc(N4CCCC4=O)c3)c2c1O` (atropisomer, axis not shown) [Inhibitor 87] to `Cc1cc2c(C(C)C)c(O)c(O)c(/C=N/c3ccc4c(c3)CCN4S(C)(=O)=O)c2c(O)c1-c1c(C)cc2c(C(C)C)c(O)c(O)c(/C=N/c3ccc4c(c3)CCN4S(C)(=O)=O)c2c1O` (atropisomer, axis not shown) [Inhibitor 51], the Ki falls from 17.6 µM to 0.8 µM (22-fold). The second binds more tightly here.

Going from `CCCC(CCC)/N=C/c1c(O)c(O)c(C(C)C)c2cc(C)c(-c3c(C)cc4c(C(C)C)c(O)c(O)c(/C=N/C(CCC)CCC)c4c3O)c(O)c12` (atropisomer, axis not shown) [Inhibitor 46] to `Cc1cc2c(C(C)C)c(O)c(O)c(/C=N/NC(=O)C(C)C)c2c(O)c1-c1c(C)cc2c(C(C)C)c(O)c(O)c(/C=N/NC(=O)C(C)C)c2c1O` [Inhibitor 6], the Ki falls from 99.1 µM to 30.2 µM (3.3-fold). The second binds more tightly here.

First: COc1cc(/N=C/c2c(O)c(O)c(C(C)C)c3cc(C)c(-c4c(C)cc5c(C(C)C)c(O)c(O)c(/C=N/c6ccc(C)c(OC)c6)c5c4O)c(O)c23)ccc1C (atropisomer, axis not shown) [Inhibitor 47]
Second: Cc1ccc(O)c(/N=C/c2c(O)c(O)c(C(C)C)c3cc(C)c(-c4c(C)cc5c(C(C)C)c(O)c(O)c(/C=N/c6cc(C)ccc6O)c5c4O)c(O)c23)c1 (atropisomer, axis not shown) [Inhibitor 54]
The Ki of the first is 9.6-fold higher: 29.1 µM for the first, 3.02 µM for the second.

Going from `Cc1cc2c(C(C)C)c(O)c(O)c(/C=N/Nc3nnnn3-c3ccccc3)c2c(O)c1-c1c(C)cc2c(C(C)C)c(O)c(O)c(/C=N/Nc3nnnn3-c3ccccc3)c2c1O` (atropisomer, axis not shown) [Inhibitor 60] to `Cc1cc2c(C(C)C)c(O)c(O)c(/C=N/Nc3nc4ccccc4[nH]c3=O)c2c(O)c1-c1c(C)cc2c(C(C)C)c(O)c(O)c(/C=N/Nc3nc4ccccc4[nH]c3=O)c2c1O` [Inhibitor 7], the Ki falls from 53.3 µM to 3.83 µM (14-fold).

Compared with `Cc1cc2c(C(C)C)c(O)c(O)c(/C=N/NCc3ccccc3Cl)c2c(O)c1-c1c(C)cc2c(C(C)C)c(O)c(O)c(/C=N/NCc3ccccc3Cl)c2c1O` [Inhibitor 8], `Cc1cc2c(C(C)C)c(O)c(O)c(/C=N/Nc3cccc(Cl)n3)c2c(O)c1-c1c(C)cc2c(C(C)C)c(O)c(O)c(/C=N/Nc3cccc(Cl)n3)c2c1O` [Inhibitor 9] is 5.1-fold lower in Ki: 56.3 µM for the first, 11 µM for the second.

Going from `CC1=C(C2=C(C)C(=O)c3c(c(C=O)c(O)c(O)c3C(C)C)C2=O)C(=O)c2c(C=O)c(O)c(O)c(C(C)C)c2C1=O` [Inhibitor 31] to `Cc1cc2c(C(C)C)c(O)c(O)c(/C=N/n3c(=O)[nH][nH]c3=O)c2c(O)c1-c1c(C)cc2c(C(C)C)c(O)c(O)c(/C=N/n3c(=O)[nH][nH]c3=O)c2c1O` (atropisomer, axis not shown) [Inhibitor 33], the Ki falls from 960 µM to 122 µM (7.9-fold).

First: Cc1cc2c(c(O)c1-c1c(C)cc3c(c1O)/C(=C/Nc1cccc(C(=C4C=CC(=N)C=C4)c4ccc(N)cc4)c1)C(=O)C(O)=C3C(C)C)/C(=C/Nc1cccc(C(=C3C=CC(=N)C=C3)c3ccc(N)cc3)c1)C(=O)C(O)=C2C(C)C [Inhibitor 30]
Second: CC(=O)c1ccc(N/C=C2\C(=O)C(O)=C(C(C)C)c3cc(C)c(-c4c(C)cc5c(c4O)/C(=C/Nc4ccc(C(C)=O)cc4)C(=O)C(O)=C5C(C)C)c(O)c32)cc1 (atropisomer, axis not shown) [Inhibitor 19]
The Ki of the first is 2.7-fold lower: 3.9 µM for the first, 10.4 µM for the second. The first binds more tightly here.

First: Cc1cc2c(c(O)c1-c1c(C)cc3c(c1O)/C(=C/Nc1c(C)n(C)n(-c4ccccc4)c1=O)C(=O)C(O)=C3C(C)C)/C(=C/Nc1c(C)n(C)n(-c3ccccc3)c1=O)C(=O)C(O)=C2C(C)C (atropisomer, axis not shown) [Inhibitor 21]
Second: Cc1cc2c(c(O)c1-c1c(C)cc3c(c1O)/C(=C/Nc1ccccc1C(=O)O)C(=O)C(O)=C3C(C)C)/C(=C/Nc1ccccc1C(=O)O)C(=O)C(O)=C2C(C)C (atropisomer, axis not shown) [Inhibitor 15]
The Ki of the first is 7.9-fold higher: 9.5 µM for the first, 1.2 µM for the second.

Compared with `Cc1cc2c(C(C)C)c(O)c(O)c(/C=N/CCOc3ccc(C4CCCCC4)cc3)c2c(O)c1-c1c(C)cc2c(C(C)C)c(O)c(O)c(/C=N/CCOc3ccc(C4CCCCC4)cc3)c2c1O` (atropisomer, axis not shown) [Inhibitor 80], `Cc1ccc(OCC/N=C/c2c(O)c(O)c(C(C)C)c3cc(C)c(-c4c(C)cc5c(C(C)C)c(O)c(O)c(/C=N/CCOc6ccc(C)cc6)c5c4O)c(O)c23)cc1` [Inhibitor 10] is 3.5-fold lower in Ki: 11.8 µM for the first, 3.4 µM for the second.

Going from `Cc1cc2c(C(C)C)c(O)c(O)c(/C=N/CC34CC5CC(C)(CC(C)(C5)C3)C4)c2c(O)c1-c1c(C)cc2c(C(C)C)c(O)c(O)c(/C=N/C34CC5CC(C)(CC(C)(C5)C3)C4)c2c1O` [Inhibitor 50] to `Cc1cc(C(=O)N/N=C/c2c(O)c(O)c(C(C)C)c3cc(C)c(-c4c(C)cc5c(C(C)C)c(O)c(O)c(/C=N/NC(=O)c6cc(C)[nH]n6)c5c4O)c(O)c23)n[nH]1` [Inhibitor 4], the Ki falls from 51.3 µM to 19.1 µM (2.7-fold).

Going from `COc1ccc(OCC/N=C/c2c(O)c(O)c(C(C)C)c3cc(C)c(-c4c(C)cc5c(C(C)C)c(O)c(O)c(/C=N/CCOc6ccc(OC)cc6)c5c4O)c(O)c23)cc1` (atropisomer, axis not shown) [Inhibitor 40] to `Cc1cc2c(C(C)C)c(O)c(O)c(/C=N/CCOc3ccccc3F)c2c(O)c1-c1c(C)cc2c(C(C)C)c(O)c(O)c(/C=N/CCOc3ccccc3F)c2c1O` (atropisomer, axis not shown) [Inhibitor 76], the Ki rises from 29.4 µM to 105 µM (3.6-fold).

Compared with `Cc1cc(C=O)c(O)c(C=O)c1` [Inhibitor 44], `O=C1NC(=S)S/C1=C/c1ccc(O)cc1` [Inhibitor 66] is 6.7-fold lower in Ki: 99.1 µM for the first, 14.7 µM for the second. The second binds more tightly here.

First: Cc1cc2c(c(O)c1-c1c(C)cc3c(c1O)/C(=C/Nc1ccc(N=Nc4ccccc4)cc1)C(=O)C(O)=C3C(C)C)/C(=C/Nc1ccc(N=Nc3ccccc3)cc1)C(=O)C(O)=C2C(C)C (atropisomer, axis not shown) [Inhibitor 18]
Second: Cc1cc2c(c(O)c1-c1c(C)cc3c(c1O)/C(=C/Nc1ccccc1O)C(=O)C(O)=C3C(C)C)/C(=C/Nc1ccccc1O)C(=O)C(O)=C2C(C)C (atropisomer, axis not shown) [Inhibitor 14]
The Ki of the first is 10-fold lower: 45.5 µM for the first, 468 µM for the second. The first binds more tightly here.

First: Cc1cc2c(c(O)c1-c1c(C)cc3c(c1O)/C(=C/NNC(=O)c1ccncc1)C(=O)C(O)=C3C(C)C)/C(=C/NNC(=O)c1ccncc1)C(=O)C(O)=C2C(C)C (atropisomer, axis not shown) [Inhibitor 26]
Second: Cc1cc(-c2ccc(N/C=C3\C(=O)C(O)=C(C(C)C)c4cc(C)c(-c5c(C)cc6c(c5O)/C(=C/Nc5ccc(-c7ccc(N)c(C)c7)cc5C)C(=O)C(O)=C6C(C)C)c(O)c43)c(C)c2)ccc1N (atropisomer, axis not shown) [Inhibitor 17]
The Ki of the first is 2.5-fold lower: 213 µM for the first, 532 µM for the second. The first binds more tightly here.

Going from `CCCCCC1CCC(=O)N1CCN/C=C1\C(=O)C(O)=C(C(C)C)c2cc(C)c(-c3c(C)cc4c(c3O)/C(=C/NCCN3C(=O)CCC3CCCCC)C(=O)C(O)=C4C(C)C)c(O)c21` (centres unmarked) [Inhibitor 75] to `Cc1cc2c(c(O)c1-c1c(C)cc3c(c1O)C(C=C1C(=O)NC(=O)NC1=O)C(=O)C(O)=C3C(C)C)C(C=C1C(=O)NC(=O)NC1=O)C(=O)C(O)=C2C(C)C` (centres unmarked) [Inhibitor 32], the Ki falls from 560 µM to 10.6 µM (53-fold).

First: Cc1cc(C)cc(OCC(=O)C/N=C/c2c(O)c(O)c(C(C)C)c3cc(C)c(-c4c(C)cc5c(C(C)C)c(O)c(O)c(/C=N/NC(=O)COc6cc(C)cc(C)c6)c5c4O)c(O)c23)c1 [Inhibitor 3]
Second: Cc1cc2c(C(C)C)c(O)c(O)c(/C=N/c3ccc(C(O)C(O)CO)cc3)c2c(O)c1-c1c(C)cc2c(C(C)C)c(O)c(O)c(/C=N/c3ccc(C(O)C(O)CO)cc3)c2c1O (centres unmarked) [Inhibitor 48]
The Ki of the first is 4.5-fold lower: 60.4 µM for the first, 274 µM for the second. The first binds more tightly here.
